Drawing on PubChem BioAssay (NCI), this text covers GI50 and TGI for 15 molecules.

Some test systems named below: KM12 colon; RPMI-8226 leukemia; SK-MEL-5 melanoma; T-47D breast; UACC-62 melanoma.
Assay in all cases: NCI-60 cell line screen, 48 h

Values joined by “and” are separate entries in the source; they are usually repeats but may differ in a detail not shown here. Equal values may be shown once.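 Dose response: 5 concentrations. Exposure: 48 h. Format: 96-well plates. Endpoint: linear interpolation; highest concentration if not reached. The concentration for 50% growth inhibition is given as GI50. TGI marks complete inhibition of growth.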

Regarding `C=C1C(=O)OC2CC3(C)OC3C3OC3C3=CC(OC3=O)C12` (centres undefined), the GI50 in the assay with KM12 colon is 18700 nM; in the assay with RPMI-8226 leukemia, 7340 nM; in the assay on SK-MEL-5 melanoma, 14900 nM; in the assay with T-47D breast, 1170 nM; in the assay with UACC-62 melanoma, 9110 nM. The TGI in the assay on KM12 colon turned out to be 37700 nM; with RPMI-8226 leukemia it was 33200 nM; in the assay on SK-MEL-5 melanoma it was 30300 nM; in the assay on T-47D breast, 4450 nM; in the assay with UACC-62 melanoma, 22300 nM.

`O=P1(O)c2ccccc2CS(=O)(=O)Cc2ccccc21`: the TGI in the assay on KM12 colon, in the assay with SK-MEL-5 melanoma, in the assay on T-47D breast and in the assay on UACC-62 melanoma was above 100000 nM each time.

Take `Cc1cc2c(C(C)C)c(O)c(O)c(C=O)c2c(O)c1-c1c(C)cc2c(C(C)C)c(O)c(O)c(C=O)c2c1O` (tested in a mixture with another compound): the GI50 in the assay on KM12 colon was 394 nM; with RPMI-8226 leukemia, 529 nM; with SK-MEL-5 melanoma, 1540 nM; in the assay with T-47D breast, 1770 nM; with UACC-62 melanoma, 1870 nM. In addition, the TGI in the assay on KM12 colon turned out to be 1510 nM; in the assay on RPMI-8226 leukemia, 4740 nM; in the assay on SK-MEL-5 melanoma, 2950 nM; in the assay on T-47D breast it was 7030 nM; in the assay on UACC-62 melanoma, 4230 nM.

On to `CC[C@@]1(OC(=O)CN)C(=O)OCc2c1cc1n(c2=O)Cc2cc3c(N)c4c(cc3nc2-1)OCO4`, for which the GI50 is 13.6 nM and 19.2 nM with KM12 colon; 2.61 nM in the assay on RPMI-8226 leukemia; 0.182 nM in the assay with SK-MEL-5 melanoma; below 0.1 nM in the assay with UACC-62 melanoma. Further, the TGI in the assay with KM12 colon was 182 nM and 1270 nM; in the assay on RPMI-8226 leukemia, 719 nM; with SK-MEL-5 melanoma, 139 nM; in the assay with T-47D breast, above 100000 nM; in the assay with UACC-62 melanoma, 24.6 nM.

Turning to `Cc1cccnc1CNC1CC(NCc2ncccc2C)CC(NCc2ncccc2C)C1` (centres undefined), the GI50 in the assay on KM12 colon was 4510 nM; in the assay with RPMI-8226 leukemia it was 1910 nM; in the assay on SK-MEL-5 melanoma, 1920 nM; in the assay on T-47D breast, 1940 nM; in the assay on UACC-62 melanoma, 1820 nM. Also, the TGI in the assay on KM12 colon was 20400 nM; in the assay with RPMI-8226 leukemia, 4300 nM; in the assay on SK-MEL-5 melanoma it was 3830 nM; with T-47D breast, 3890 nM; with UACC-62 melanoma, 3630 nM.

Consider `O=C(NO)c1cnc(N2CCN(S(=O)(=O)c3ccc4ccccc4c3)CC2)nc1`, for which the GI50 is 75.9 nM with KM12 colon; 20.8 nM in the assay on RPMI-8226 leukemia; 39.6 nM in the assay on SK-MEL-5 melanoma; 22.7 nM with T-47D breast; 37.4 nM in the assay on UACC-62 melanoma. For the same molecule, the TGI in the assay on KM12 colon turned out to be 412 nM; in the assay with RPMI-8226 leukemia, 17600 nM; with SK-MEL-5 melanoma it was 150 nM; in the assay on T-47D breast, 1790 nM; in the assay with UACC-62 melanoma it was 220 nM.

Consider `ClC1=C(Cl)C(Cl)=C(Cl)C1=Cc1ccc(Cl)cc1`, for which the GI50 was 844 nM in the assay on KM12 colon; 422 nM with RPMI-8226 leukemia; 1170 nM in the assay with SK-MEL-5 melanoma; 484 nM in the assay with T-47D breast; 363 nM in the assay on UACC-62 melanoma. The TGI in the assay on KM12 colon is 2380 nM; with RPMI-8226 leukemia it was 5320 nM; in the assay with SK-MEL-5 melanoma it was 2410 nM; in the assay with T-47D breast it was 2040 nM; with UACC-62 melanoma, 1650 nM.

With `COc1ccc(-n2sc(=O)n(Cc3ccc(COC(=O)C(C)c4ccc(CC(C)C)cc4)cc3)c2=O)cc1` (centres undefined), the GI50 was 7700 nM in the assay with KM12 colon; 1510 nM with RPMI-8226 leukemia; 7410 nM with SK-MEL-5 melanoma; 1320 nM in the assay on T-47D breast; 4030 nM with UACC-62 melanoma. Also, the TGI in the assay with KM12 colon came out at 14600 nM; in the assay with RPMI-8226 leukemia, 4110 nM; in the assay on SK-MEL-5 melanoma, 14500 nM; with T-47D breast, 5540 nM; in the assay with UACC-62 melanoma it was 10500 nM.

`CC[C@H](C)[C@H](NC(=O)C12CC(NC(C)=O)(C1)C2)C(=O)N(C)[C@H](C[C@@H](OC(C)=O)c1nc(C(=O)N[C@@H](Cc2ccccc2)C[C@H](C)C(=O)OC)cs1)C(C)C`: the GI50 in the assay on KM12 colon was 296 nM; in the assay on RPMI-8226 leukemia, 58.5 nM; with SK-MEL-5 melanoma it was 80.7 nM; with UACC-62 melanoma it was 73.5 nM. Also, the TGI is above 16700 nM in the assay with KM12 colon, above 3640 nM in the assay on RPMI-8226 leukemia, 2760 nM in the assay on SK-MEL-5 melanoma and above 16700 nM in the assay with UACC-62 melanoma.

Turning to `CCCCCc1c(C)[nH]c(/C=c2\[nH]/c(=C3/C=c4ccccc4=N3)cc2OC)c1C`, the GI50 is 51.1 nM in the assay on KM12 colon; 61.4 nM with RPMI-8226 leukemia; 32.4 nM in the assay with SK-MEL-5 melanoma; 58.8 nM in the assay with T-47D breast; 62.4 nM in the assay on UACC-62 melanoma. Also, the TGI in the assay on KM12 colon is above 100000 nM; in the assay with RPMI-8226 leukemia, 682 nM; with SK-MEL-5 melanoma, 110 nM; in the assay on T-47D breast it was 698 nM; with UACC-62 melanoma, 355 nM.

`CCN1C(=O)N(CC)C2C1NN=c1s/c(=C\c3ccccc3)c(=O)n12` (centres undefined): the GI50 is 70.5 nM with KM12 colon; 389 nM in the assay with RPMI-8226 leukemia; 147 nM with SK-MEL-5 melanoma; 519 nM in the assay with T-47D breast; 59.6 nM in the assay with UACC-62 melanoma. Further, the TGI in the assay with KM12 colon is above 100000 nM; in the assay with RPMI-8226 leukemia it was above 72400 nM; with SK-MEL-5 melanoma, 6110 nM; with T-47D breast, above 100000 nM; with UACC-62 melanoma, above 100000 nM.

As for `O=C1c2cccc3cc([N+](=O)[O-])cc(c23)C(=O)N1O`, the TGI with KM12 colon was 61700 nM; in the assay on RPMI-8226 leukemia, above 100000 nM; in the assay on SK-MEL-5 melanoma it was above 100000 nM; with T-47D breast, above 100000 nM; with UACC-62 melanoma, 81400 nM.

`CN1CCN(c2ccc3nc4c(nc3c2C(F)(F)F)C(=O)c2ncccc2C4=O)CC1`: the GI50 in the assay with KM12 colon is 2280 nM; with RPMI-8226 leukemia it was 2370 nM; with SK-MEL-5 melanoma it was 1430 nM; with T-47D breast it was 1960 nM; with UACC-62 melanoma, 1050 nM. Also, the TGI with KM12 colon was 10900 nM; in the assay with RPMI-8226 leukemia, 7590 nM; in the assay with SK-MEL-5 melanoma, 2760 nM; in the assay with T-47D breast, 4620 nM; with UACC-62 melanoma, 2310 nM.

On to `COc1cc2c3c(c1O)C1(C=CC(=O)C=C1)CC3N(C)CC2` (centres undefined), for which the TGI with KM12 colon came to 17500 nM; in the assay on RPMI-8226 leukemia, 83700 nM; with SK-MEL-5 melanoma, 32600 nM; in the assay with T-47D breast it was 26200 nM; in the assay on UACC-62 melanoma it was 23100 nM.

Turning to `O=C(Nc1ccc(S(=O)(=O)NC2CCCCCC2)cc1)C(c1ccccc1)S(=O)(=O)c1ccc(F)cc1` (centres undefined), the GI50 is 321 nM in the assay on KM12 colon, 404 nM in the assay with SK-MEL-5 melanoma, 717 nM with T-47D breast and 137 nM in the assay on UACC-62 melanoma. The TGI with KM12 colon was 1960 nM; in the assay on SK-MEL-5 melanoma, 1720 nM; in the assay with T-47D breast, 4830 nM; in the assay with UACC-62 melanoma it was 690 nM.
